Reference: patent US20260022142A1, “MACROCYCLIC IMMUNOMODULATORS” (Bristol-Myers Squibb Company, priority 2022, published 2026)
Numbered stars: 1 amine (or outer) side, 2 acyl side, 3 side chain; on linkers, the order of the positions; unused ones are H or OH. Bridge positions count the residues as written; N and C are the ends. Square brackets hold non-standard residues; d marks the D form. Peptide text beside a SMILES is read from it. * marks the point of attachment. ξ: configuration not given here. Phe(3-CF3) = N[C@@H](Cc1cccc(C(F)(F)F)c1)C(=O)O; Phe(4-COOH) = N[C@@H](Cc1ccc(C(=O)O)cc1)C(=O)O; Bip = N[C@@H](Cc1ccc(-c2ccccc2)cc1)C(=O)O; Phe(3-Me) = Cc1cccc(C[C@H](N)C(=O)O)c1; γGlu = O=C(O)[C@H](CCC(=O)[*:2])N[*:1]; NH(CH2)12COOH = O=C(O)CCCCCCCCCCCCN*; Val(3-OH) = CC(C)(O)[C@H](N)C(=O)O; Cha = N[C@@H](CC1CCCCC1)C(=O)O; Cit = NC(=O)NCCC[C@H](N)C(=O)O; aThr = C[C@H](O)[C@H](N)C(=O)O; Thr(3ξ) = CC(O)[C@H](N)C(=O)O; Tle = CC(C)(C)[C@H](N)C(=O)O; 12Ado = NCCCCCCCCCCCC(=O)O; Carboxymethyl = O=C(O)C*; Nle = CCCC[C@H](N)C(=O)O; Orn = NCCC[C@H](N)C(=O)O; Aun = NCCCCCCCCCCC(=O)O; Dab = NCC[C@H](N)C(=O)O; Dap = NC[C@H](N)C(=O)O; AEEA = NCCOCCOCC(=O)O

molecular target: T1, PD-1/PD-L1 interaction (PE-labeled human PD-L1-Ig binding to Jurkat cell line over-expressing human PD-1) (Homo sapiens, UniProt Q15116); test: Jurkat-PD-1 Cell Binding High-Content Screening Assay (CBA); type: cell-based; settings: Jurkat cell line over-expressing human PD-1; PE-labeled PD-L1-Ig 20 nM final; read-out: Jurkat hPD1-PDL1 IC50
T1 construct: expressed in transfected cells; host or cells: Jurkat
Summary of the method: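 Human PD-L1-Ig carrying a covalent PE label on its Ig tag serves as the probe, applied at 20 nM final to compound-treated (2 h, 37° C) Jurkat-hPD-1 cells in medium with 10% fetal calf serum. After one hour, fixation and nuclear staining precede high-content image analysis.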

T1 sequence (Q15116 25-288): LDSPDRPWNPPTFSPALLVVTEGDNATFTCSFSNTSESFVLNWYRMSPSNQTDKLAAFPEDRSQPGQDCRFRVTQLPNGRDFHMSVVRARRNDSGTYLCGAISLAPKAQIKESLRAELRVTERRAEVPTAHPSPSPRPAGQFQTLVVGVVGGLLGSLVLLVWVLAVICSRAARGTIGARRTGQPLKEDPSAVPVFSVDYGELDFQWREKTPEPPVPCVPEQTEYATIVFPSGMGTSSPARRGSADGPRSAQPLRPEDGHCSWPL

Row | IC50 [nM] | SMILES
1 | 39 | CC(C)C[C@H]1NC(=O)[C@H](CCCN)NC(=O)[C@H](Cc2ccc(C(=O)O)cc2)NC(=O)[C@H](Cc2ccc(-c3ccccc3)cc2)NC(=O)[C@H](Cc2ccc(C(=O)O)cc2)NC(=O)[C@H](Cc2cccc(C(F)(F)F)c2)NC(=O)[C@H](CC(=O)O)NC(=O)[C@H](Cc2ccc(OCC(=O)O)cc2)NC(=O)[C@H](C)NC(=O)CSC[C@@H](C(=O)N[C@@H](CCN)C(=O)NCCOCCOCC(=O)N[C@@H](CCC(=O)NCCOCCOCC(=O)NCCCCCCCCCCCCC(=O)O)C(=O)O)NC(=O)[C@H](CO)NC(=O)[C@H](C(C)(C)O)NC(=O)[C@H](CC2CCCCC2)NC(=O)[C@H](CCN)NC1=O [Compound 2934] ({CH2CO}-AY(Carboxymethyl)D[Phe(3-CF3)][Phe(4-COOH)][Bip][Phe(4-COOH)][Orn][dL][Dab][Cha][Val(3-OH)]SC[Dab][AEEA][γGlu][AEEA]-{NH(CH2)12COOH}; thioether N-14)
2 | 29.9 | CC(C)C[C@H]1NC(=O)[C@H](CCCN)NC(=O)[C@H](C(C)C)NC(=O)[C@H](Cc2ccc(-c3ccccc3)cc2)NC(=O)[C@H](C(C)C)NC(=O)[C@H](Cc2c[nH]c3ccccc23)NC(=O)[C@H](CC(=O)O)NC(=O)[C@H](Cc2ccc(OCC(=O)O)cc2)NC(=O)[C@H](CN)NC(=O)CSC[C@@H](C(=O)NCCOCCOCC(=O)N[C@@H](CCCCN)C(=O)NCCCCCCCCCCC(=O)O)NC(=O)[C@H]([C@H](C)O)NC(=O)[C@H](C(C)C)NC(=O)[C@H](CC2CCCCC2)NC(=O)[C@H](CC(N)=O)NC1=O [Compound 3164] ({CH2CO}-[Dap]Y(Carboxymethyl)DWV[Bip]V[Orn][dL]N[Cha]V[aThr]C[AEEA]K[Aun]-OH; thioether N-14)
3 | 82.2 | CC(=O)NCC[C@@H]1NC(=O)[C@H](C(C)C)NC(=O)[C@H](CC2CCCCC2)NC(=O)[C@H](CCN)NC(=O)[C@@H](CC(C)C)NC(=O)[C@H](CCC(=O)O)NC(=O)[C@H](C(C)C)NC(=O)[C@H](Cc2ccc(-c3ccccc3)cc2)NC(=O)[C@H](CC(C)C)NC(=O)[C@H](Cc2c[nH]c3ccccc23)NC(=O)[C@H](CC(=O)O)NC(=O)[C@H](Cc2ccc(OCC(=O)O)cc2)NC(=O)[C@H](C(C)O)NC(=O)CSC[C@@H](C(=O)NCCOCCOCC(=O)NCCCCCCCCCCC(=O)O)NC1=O (stereo partly drawn) [Compound 3710] ({CH2CO}-[Thr(3ξ)]Y(Carboxymethyl)DWL[Bip]VE[dL][Dab][Cha]V[Dab](Ac)C[AEEA][Aun]-OH; thioether N-14)
4 | 16.8 | CC(C)C[C@H]1NC(=O)[C@H](CCCN)NC(=O)[C@H](C(C)C)NC(=O)[C@H](Cc2ccc(-c3ccccc3)cc2)NC(=O)[C@H](C(C)C)NC(=O)[C@H](Cc2c[nH]c3ccccc23)NC(=O)[C@H](CC(=O)O)NC(=O)[C@H](Cc2ccc(C(=O)O)cc2)NC(=O)[C@H](Cc2ccc(OCC(=O)O)cc2)NC(=O)CSC[C@@H](C(=O)NCC(=O)NCCOCCOCC(=O)N[C@@H](CCCN)C(=O)NCCCCCCCCCCCC(=O)O)NC(=O)[C@H](CO)NC(=O)[C@H](C(C)C)NC(=O)[C@H](CC2CCCCC2)NC(=O)[C@H](CCN)NC1=O [Compound 3180] ({CH2CO}-Y(Carboxymethyl)[Phe(4-COOH)]DWV[Bip]V[Orn][dL][Dab][Cha]VSCG[AEEA][Orn][12Ado]-OH; thioether N-14)
5 | 9.4 | CC(C)C[C@H]1NC(=O)[C@H](CCCN)NC(=O)[C@H](CCCNC(N)=O)NC(=O)[C@H](Cc2ccc(-c3ccccc3)cc2)NC(=O)[C@H](C(C)C)NC(=O)[C@H](Cc2c[nH]c3ccccc23)NC(=O)[C@H](CC(=O)O)NC(=O)[C@H](Cc2ccc(OCC(=O)O)cc2)NC(=O)[C@H](Cc2ccc(OCC(=O)O)cc2)NC(=O)CSC[C@@H](C(=O)NCCOCCOCC(=O)N[C@@H](CCN)C(=O)NCCCCCCCCCCC(=O)O)NC(=O)[C@H](CCCNC(=N)N)NC(=O)[C@H](C(C)C)NC(=O)[C@H](CC2CCCCC2)NC(=O)[C@H](CCN)NC1=O [Compound 2655] ({CH2CO}-Y(Carboxymethyl)Y(Carboxymethyl)DWV[Bip][Cit][Orn][dL][Dab][Cha]VRC[AEEA][Dab][Aun]-OH; thioether N-14)
6 | 11.4 | CC(C)C[C@H]1NC(=O)[C@H](CCCN)NC(=O)[C@H](C(C)C)NC(=O)[C@H](Cc2ccc(-c3ccccc3)cc2)NC(=O)[C@H](C(C)C)NC(=O)[C@H](Cc2c[nH]c3ccccc23)NC(=O)[C@H](CC(=O)O)NC(=O)[C@H](Cc2ccc(C(=O)O)cc2)NC(=O)[C@H](CCCNC(=N)N)NC(=O)CSC[C@@H](C(=O)NCC(=O)NCCOCCOCC(=O)N[C@@H](CCCN)C(=O)NCCCCCCCCCCC(=O)O)NC(=O)[C@H](CN)NC(=O)[C@H](C(C)C)NC(=O)[C@H](CC2CCCCC2)NC(=O)[C@H](CCN)NC1=O [Compound 3239] ({CH2CO}-R[Phe(4-COOH)]DWV[Bip]V[Orn][dL][Dab][Cha]V[Dap]CG[AEEA][Orn][Aun]-OH; thioether N-14)
7 | 84.9 | CC(C)C[C@H]1NC(=O)[C@H](CCCN)NC(=O)[C@H](C(C)C)NC(=O)[C@H](Cc2ccc(-c3ccccc3)cc2)NC(=O)[C@H](C(C)C)NC(=O)[C@H](Cc2c[nH]c3ccccc23)NC(=O)[C@H](CC(=O)O)NC(=O)[C@H](Cc2ccc(OCC(=O)O)cc2)NC(=O)[C@H](CN)NC(=O)CSC[C@@H](C(=O)N[C@@H](CC(=O)O)C(=O)NCCCCCCCCCCC(=O)O)NC(=O)[C@H]([C@@H](C)O)NC(=O)[C@H](C(C)C)NC(=O)[C@H](CC2CCCCC2)NC(=O)[C@H](Cc2c[nH]cn2)NC1=O [Compound 1078] ({CH2CO}-[Dap]Y(Carboxymethyl)DWV[Bip]V[Orn][dL]H[Cha]VTCD[Aun]-OH; thioether N-14)
8 | 31.6 | Cc1cccc(C[C@@H]2NC(=O)[C@H](CC(=O)O)NC(=O)[C@H](Cc3ccc(OCC(=O)O)cc3)NC(=O)[C@H](CC(N)=O)NC(=O)CSC[C@@H](C(=O)N[C@@H](CCN)C(=O)NCCCCCCCCCCC(=O)O)NC(=O)[C@H](C(C)O)NC(=O)[C@H](C(C)C)NC(=O)[C@H](CC3CCCCC3)NC(=O)[C@H](CCN)NC(=O)[C@@H](CC(C)C)NC(=O)[C@H](CCN)NC(=O)[C@H](Cc3ccc(O)cc3)NC(=O)[C@H](Cc3ccc(-c4ccccc4)cc3)NC(=O)[C@H](CC(C)C)NC2=O)c1 (stereo partly drawn) [Compound 3374] ({CH2CO}-NY(Carboxymethyl)D[Phe(3-Me)]L[Bip]Y[Dab][dL][Dab][Cha]V[Thr(3ξ)]C[Dab][Aun]-OH; thioether N-14)
9 | 608 | Cc1cccc(C[C@@H]2NC(=O)[C@H](CC(=O)O)NC(=O)[C@H](Cc3ccc(OCC(=O)O)cc3)NC(=O)[C@H](C(C)O)NC(=O)CSC[C@@H](C(=O)N[C@H](CC(N)=O)C(=O)NCCCCCCCCCCC(=O)O)NC(=O)[C@H](C(C)(C)C)NC(=O)[C@H](CO)NC(=O)[C@H](CC3CCCCC3)NC(=O)[C@H](CCN)NC(=O)[C@@H](CC(C)C)NC(=O)[C@H](CCCN)NC(=O)[C@H](Cc3ccc(OCC(=O)O)cc3)NC(=O)[C@H](Cc3ccc(-c4ccccc4)cc3)NC(=O)[C@H](Cc3ccc(O)cc3)NC2=O)c1 (stereo partly drawn) [Compound 3520] ({CH2CO}-[Thr(3ξ)]Y(Carboxymethyl)D[Phe(3-Me)]Y[Bip]Y(Carboxymethyl)[Orn][dL][Dab][Cha]S[Tle]C[dN][Aun]-OH; thioether N-14)
10 | 8.2 | CC(C)C[C@H]1NC(=O)[C@H](CCCN)NC(=O)[C@H](Cc2ccc(O)cc2)NC(=O)[C@H](Cc2ccc(-c3ccccc3)cc2)NC(=O)[C@H](C(C)C)NC(=O)[C@H](Cc2c[nH]c3ccccc23)NC(=O)[C@H](CC(=O)O)NC(=O)[C@H](Cc2ccc(OCC(=O)O)cc2)NC(=O)[C@H](CCCNC(=N)N)NC(=O)CSC[C@@H](C(=O)N[C@@H](CCN)C(=O)NCCCCCCCCCCC(=O)O)NC(=O)[C@H](CCC(N)=O)NC(=O)[C@H](C(C)C)NC(=O)[C@H](CC2CCCCC2)NC(=O)[C@H](CCN)NC1=O [Compound 3405] ({CH2CO}-RY(Carboxymethyl)DWV[Bip]Y[Orn][dL][Dab][Cha]VQC[Dab][Aun]-OH; thioether N-14)
11 | 24.1 | CC(C)C[C@H]1NC(=O)[C@H](CCCN)NC(=O)[C@H](C(C)C)NC(=O)[C@H](Cc2ccc(-c3ccccc3)cc2)NC(=O)[C@H](C(C)C)NC(=O)[C@H](Cc2c[nH]c3ccccc23)NC(=O)[C@H](CC(=O)O)NC(=O)[C@H](Cc2ccc(OCC(=O)O)cc2)NC(=O)[C@H](CN)NC(=O)CSC[C@@H](C(=O)N[C@@H](CCN)C(=O)NCCCCCCCCCCC(=O)O)NC(=O)[C@H](CO)NC(=O)[C@H](C(C)O)NC(=O)[C@H](CC2CCCCC2)NC(=O)[C@H](CCN)NC1=O (stereo partly drawn) [Compound 3651] ({CH2CO}-[Dap]Y(Carboxymethyl)DWV[Bip]V[Orn][dL][Dab][Cha][Thr(3ξ)]SC[Dab][Aun]-OH; thioether N-14)
12 | 19.2 | CCCC[C@@H]1NC(=O)CSC[C@@H](C(=O)N[C@@H](CCN)C(=O)NCCOCCOCC(=O)NCCOCCOCC(=O)NCCCCCCCCCCCCC(=O)O)NC(=O)[C@H](CO)NC(=O)[C@H](C(C)(C)O)NC(=O)[C@H](CC2CCCCC2)NC(=O)[C@H](CCN)NC(=O)[C@@H](CC(C)C)NC(=O)[C@H](CCCN)NC(=O)[C@H](Cc2ccc(OCC(=O)O)cc2)NC(=O)[C@H](Cc2ccc(-c3ccccc3)cc2)NC(=O)[C@H](Cc2ccc(OCC(=O)O)cc2)NC(=O)[C@H](Cc2cccc(C(F)(F)F)c2)NC(=O)[C@H](CC(=O)O)NC(=O)[C@H](Cc2ccc(OCC(=O)O)cc2)NC1=O [Compound 3829] ({CH2CO}-[Nle]Y(Carboxymethyl)D[Phe(3-CF3)]Y(Carboxymethyl)[Bip]Y(Carboxymethyl)[Orn][dL][Dab][Cha][Val(3-OH)]SC[Dab][AEEA][AEEA]-{NH(CH2)12COOH}; thioether N-14)
13 | 7.4 | Cc1cccc(C[C@@H]2NC(=O)[C@H](CC(=O)O)NC(=O)[C@H](Cc3ccc(OCC(=O)O)cc3)NC(=O)[C@H](CCCNC(=N)N)NC(=O)CSC[C@@H](C(=O)N[C@@H](CCN)C(=O)NCCCCCCCCCCC(=O)O)NC(=O)[C@H](C(C)O)NC(=O)[C@H](C(C)C)NC(=O)[C@H](CC3CCCCC3)NC(=O)[C@H](CCN)NC(=O)[C@@H](CC(C)C)NC(=O)[C@H](CCN)NC(=O)[C@H](CCCNC(N)=O)NC(=O)[C@H](Cc3ccc(-c4ccccc4)cc3)NC(=O)[C@H](C(C)C)NC2=O)c1 (stereo partly drawn) [Compound 3307] ({CH2CO}-RY(Carboxymethyl)D[Phe(3-Me)]V[Bip][Cit][Dab][dL][Dab][Cha]V[Thr(3ξ)]C[Dab][Aun]-OH; thioether N-14)
